Data taken from paper PMC2737065 (Journal of the American Chemical Society, 2009).
pIC50: −log10 of the molar value.

Target: P450 19A1 (aromatase) (Homo sapiens, UniProt P11511)
Test: competitive ABPP: blockade of probe […] labeling, in-gel fluorescence
Assay type: biochemical

Sequence of P450 19A1 (aromatase) (P16435 2-677): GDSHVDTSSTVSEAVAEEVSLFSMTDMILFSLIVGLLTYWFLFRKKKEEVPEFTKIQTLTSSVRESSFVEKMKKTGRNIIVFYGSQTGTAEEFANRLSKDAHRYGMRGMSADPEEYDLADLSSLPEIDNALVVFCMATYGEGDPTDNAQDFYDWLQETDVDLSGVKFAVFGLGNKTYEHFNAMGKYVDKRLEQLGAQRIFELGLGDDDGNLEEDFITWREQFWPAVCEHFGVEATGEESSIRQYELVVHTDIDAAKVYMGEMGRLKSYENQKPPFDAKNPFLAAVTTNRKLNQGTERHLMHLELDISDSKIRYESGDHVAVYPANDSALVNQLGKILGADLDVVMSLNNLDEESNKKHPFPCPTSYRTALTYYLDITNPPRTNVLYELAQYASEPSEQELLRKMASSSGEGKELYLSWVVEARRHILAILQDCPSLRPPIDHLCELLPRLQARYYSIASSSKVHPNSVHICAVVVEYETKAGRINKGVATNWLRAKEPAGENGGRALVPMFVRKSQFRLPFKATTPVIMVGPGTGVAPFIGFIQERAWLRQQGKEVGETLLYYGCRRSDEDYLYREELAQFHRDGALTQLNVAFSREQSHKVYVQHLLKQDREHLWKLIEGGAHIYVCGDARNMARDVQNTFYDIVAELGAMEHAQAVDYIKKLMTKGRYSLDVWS
Sequence of P450 19A1 (aromatase) (P11511 whole entry): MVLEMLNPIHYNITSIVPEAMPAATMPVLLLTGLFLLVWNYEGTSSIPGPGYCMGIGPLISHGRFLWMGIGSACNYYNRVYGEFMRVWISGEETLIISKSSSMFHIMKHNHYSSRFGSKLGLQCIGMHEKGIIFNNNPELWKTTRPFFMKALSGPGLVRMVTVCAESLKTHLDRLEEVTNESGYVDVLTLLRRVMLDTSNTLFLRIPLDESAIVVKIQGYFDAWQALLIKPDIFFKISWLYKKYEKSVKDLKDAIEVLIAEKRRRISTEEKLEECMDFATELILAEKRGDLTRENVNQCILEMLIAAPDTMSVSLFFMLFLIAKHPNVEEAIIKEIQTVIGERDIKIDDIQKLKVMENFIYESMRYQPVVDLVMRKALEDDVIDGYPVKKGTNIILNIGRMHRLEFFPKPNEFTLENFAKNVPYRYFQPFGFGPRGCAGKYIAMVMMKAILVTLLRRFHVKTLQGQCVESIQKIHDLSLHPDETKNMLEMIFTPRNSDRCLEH

C[C@]12CCC(=O)C(O)=C1CC[C@@H]1[C@@H]2CC[C@]2(C)C(=O)CC[C@@H]12 [formestane]
pIC50: 6.37
